Data reported in US8471005B2 (Cephalon, Inc., priority 2008, dated 2013).
Read-outs that look alike come from different tables or passages of the source.

What was measured:
[1] = molecular target: T1, JAK2 (Homo sapiens, UniProt O60674); test: Recombinant Human JAK2 Kinase Assay (TRF); format: biochemical; details: read-out: JAK2 Potency
T1 construct: host or cells: baculovirus expression system
How it was run: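 Baculovirus-expressed JAK2 (15 ng/ml) phosphorylated a biotinylated 15-mer peptide captured on Neutravidin, in 20 mM HEPES pH 7.2, 0.2 μM ATP, 1 mM MnCl2, 0.1% BSA, 2.5% DMSO final, 20 min at room temperature. Phosphoproduct detected by time-resolved fluorescence with Eu-N1-labelled PY100 antibody.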

[2] = molecular target: T2, ALK (Homo sapiens, UniProt Q9UM73); test: ALK Kinase Assay (ELISA/TRF, PLC-γ substrate); format: biochemical; details: read-out: ALK Potency
T2 construct: host or cells: baculovirus expression system
How it was run: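 First, plates are coated with substrate (phospholipase C-γ, 10 μg/mL, TBS). Next, 30 ng/ml ALK initiates phosphorylation for 15 min at 37° C. Then Eu-N1 PT66 antibody is added for detection, and a nonlinear dose-response fit of percent inhibition yields IC50.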

[3] = JAK2 kinase inhibition, 0.2 μM ATP
[4] = ALK kinase inhibition, 1 μM ATP

T1 sequence (O60674 whole entry): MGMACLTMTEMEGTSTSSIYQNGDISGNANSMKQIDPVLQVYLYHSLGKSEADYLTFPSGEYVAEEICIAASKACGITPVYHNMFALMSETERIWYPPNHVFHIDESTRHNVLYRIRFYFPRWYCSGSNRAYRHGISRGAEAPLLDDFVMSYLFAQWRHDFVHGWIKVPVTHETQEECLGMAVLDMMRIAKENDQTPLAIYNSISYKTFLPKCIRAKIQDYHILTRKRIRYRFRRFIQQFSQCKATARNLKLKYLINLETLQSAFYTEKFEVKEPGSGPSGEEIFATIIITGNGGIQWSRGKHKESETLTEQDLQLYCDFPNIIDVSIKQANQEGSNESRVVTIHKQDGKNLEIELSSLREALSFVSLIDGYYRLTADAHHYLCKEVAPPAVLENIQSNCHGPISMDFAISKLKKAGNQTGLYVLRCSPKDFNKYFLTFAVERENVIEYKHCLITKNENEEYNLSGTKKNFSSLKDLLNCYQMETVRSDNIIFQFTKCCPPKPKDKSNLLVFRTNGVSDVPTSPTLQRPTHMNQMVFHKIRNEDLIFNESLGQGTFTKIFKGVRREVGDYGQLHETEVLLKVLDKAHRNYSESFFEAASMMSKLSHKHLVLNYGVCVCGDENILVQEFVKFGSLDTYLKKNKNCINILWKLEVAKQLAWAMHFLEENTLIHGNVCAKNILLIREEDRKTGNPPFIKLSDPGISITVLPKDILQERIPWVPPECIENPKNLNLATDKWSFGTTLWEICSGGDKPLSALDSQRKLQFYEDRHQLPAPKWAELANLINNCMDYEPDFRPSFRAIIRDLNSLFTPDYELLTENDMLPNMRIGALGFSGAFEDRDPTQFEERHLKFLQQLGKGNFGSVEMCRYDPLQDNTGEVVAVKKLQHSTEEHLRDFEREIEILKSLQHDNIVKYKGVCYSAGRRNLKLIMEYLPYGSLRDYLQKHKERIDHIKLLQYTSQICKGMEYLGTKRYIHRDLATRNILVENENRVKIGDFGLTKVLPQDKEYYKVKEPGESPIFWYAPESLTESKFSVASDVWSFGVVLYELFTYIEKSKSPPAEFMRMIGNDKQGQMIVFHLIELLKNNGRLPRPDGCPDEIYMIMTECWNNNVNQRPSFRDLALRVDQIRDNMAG
T2 sequence (Q9UM73 19-1620): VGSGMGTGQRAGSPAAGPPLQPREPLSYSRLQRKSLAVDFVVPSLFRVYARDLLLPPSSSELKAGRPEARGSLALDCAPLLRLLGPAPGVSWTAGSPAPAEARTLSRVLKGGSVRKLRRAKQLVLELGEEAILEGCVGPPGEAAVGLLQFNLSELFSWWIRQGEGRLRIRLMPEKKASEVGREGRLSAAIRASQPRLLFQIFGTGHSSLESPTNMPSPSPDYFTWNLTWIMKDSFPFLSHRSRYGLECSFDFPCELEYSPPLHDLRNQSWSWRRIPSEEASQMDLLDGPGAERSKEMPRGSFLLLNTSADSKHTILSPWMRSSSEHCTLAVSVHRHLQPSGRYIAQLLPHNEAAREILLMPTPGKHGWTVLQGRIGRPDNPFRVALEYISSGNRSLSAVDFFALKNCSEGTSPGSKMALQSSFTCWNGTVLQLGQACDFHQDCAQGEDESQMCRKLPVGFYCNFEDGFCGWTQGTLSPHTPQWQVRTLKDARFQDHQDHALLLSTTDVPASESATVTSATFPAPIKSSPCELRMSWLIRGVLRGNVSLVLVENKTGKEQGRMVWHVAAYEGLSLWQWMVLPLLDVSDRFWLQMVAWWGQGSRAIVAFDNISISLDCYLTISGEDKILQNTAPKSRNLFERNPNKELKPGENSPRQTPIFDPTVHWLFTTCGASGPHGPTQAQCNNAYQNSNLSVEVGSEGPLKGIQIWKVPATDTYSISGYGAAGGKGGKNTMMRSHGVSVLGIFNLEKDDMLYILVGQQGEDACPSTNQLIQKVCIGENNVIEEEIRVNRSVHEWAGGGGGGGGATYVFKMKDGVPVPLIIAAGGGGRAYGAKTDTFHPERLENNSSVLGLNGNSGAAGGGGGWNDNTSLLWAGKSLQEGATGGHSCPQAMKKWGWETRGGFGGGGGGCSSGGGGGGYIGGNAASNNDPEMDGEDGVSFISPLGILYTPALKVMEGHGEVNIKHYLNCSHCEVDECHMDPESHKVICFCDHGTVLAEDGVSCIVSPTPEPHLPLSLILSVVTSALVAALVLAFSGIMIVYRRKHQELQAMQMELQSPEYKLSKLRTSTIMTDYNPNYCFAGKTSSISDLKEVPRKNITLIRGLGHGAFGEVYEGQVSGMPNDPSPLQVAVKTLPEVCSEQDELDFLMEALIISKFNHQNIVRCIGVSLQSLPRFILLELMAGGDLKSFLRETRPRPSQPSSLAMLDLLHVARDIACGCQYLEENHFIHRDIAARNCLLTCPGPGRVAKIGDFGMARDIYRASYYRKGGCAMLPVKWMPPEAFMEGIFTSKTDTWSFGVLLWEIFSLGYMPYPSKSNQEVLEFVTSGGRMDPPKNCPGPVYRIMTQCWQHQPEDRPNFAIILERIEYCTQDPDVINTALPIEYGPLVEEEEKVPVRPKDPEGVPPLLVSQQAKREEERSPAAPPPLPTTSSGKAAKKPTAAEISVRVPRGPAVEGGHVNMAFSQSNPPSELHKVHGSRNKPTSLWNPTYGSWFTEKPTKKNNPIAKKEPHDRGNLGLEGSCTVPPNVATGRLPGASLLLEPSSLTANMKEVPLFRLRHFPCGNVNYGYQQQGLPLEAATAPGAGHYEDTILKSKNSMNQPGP

| SMILES | IC50 [1, 3] | IC50 [2, 4] | IC50 ([1]; JAK2 Kinase Inhibition) | IC50 ([2]; ALK Kinase Inhibition) |
| --- | --- | --- | --- | --- |
| CN(C)S(=O)(=O)c1ccc(-c2ccc3cnc(Nc4ccc(N5CCOCC5)cc4)nn23)cc1 [Example 71, N,N-Dimethyl-4-[2-(4-morpholin-4-yl-phenylamino)-pyrrolo[2,1-f][1,2,4]triazin-7-yl]-benzenesulfonamide] |  |  | < 100 nM | > 10000 nM |
| CN1CCN(CC2CCN(c3ccc(Nc4ncc5ccc(-c6ccccc6N(C)S(C)(=O)=O)n5n4)cc3)CC2)CC1 [Example 450, N-Methyl-N-[2-(2-{4-[4-(4-methyl-piperazin-1-ylmethyl)-piperidin-1-yl]-phenylamino}-pyrrolo[2,1-f][1,2,4]triazin-7-yl)-phenyl]-methanesulfonamide] |  |  | < 100 nM | < 100 nM |
| CNC(=O)c1ccc(-c2ccc3cnc(Nc4cccc(N5CCOCC5)c4)nn23)cc1 [Example 194, N-Methyl-4-[2-(3-morpholin-4-yl-phenylamino)-pyrrolo[2,1-f][1,2,4]triazin-7-yl]-benzamide] |  |  | < 100 nM | 100 to 1000 nM |
| COc1ccccc1-c1ccc2cnc(Nc3ccc(N4CCN(C)CC4)cc3Cl)nn12 [Example 508, [2-Chloro-4-(4-methyl-piperazin-1-yl)-phenyl]-[7-(2-methoxy-phenyl)-pyrrolo[2,1-f][1,2,4]triazin-2-yl]-amine] | < 100 nM | < 100 nM |  |  |
| COc1cc(C2CCNCC2)ccc1Nc1ncc2ccc(-c3cccc4c3NC(=O)C4)n2n1 [Example 714, 7-[2-(2-Methoxy-4-piperidin-4-ylphenylamino)pyrrolo[2,1-f][1,2,4]triazin-7-yl]-1,3-dihydro-indol-2-one] | 1000 to 10000 nM | 1000 to 10000 nM |  |  |
| CNC(=O)c1ccc(-c2ccc3cnc(Nc4ccc(N5CCOCC5)cc4)nn23)cc1 [Example 55, N-Methyl-4-[2-(4-morpholin-4-yl-phenylamino)-pyrrolo[2,1-f][1,2,4]triazin-7-yl]-benzamide] |  |  | < 100 nM | 1000 to 10000 nM |
| CC(=O)Nc1cc(Nc2ncc3ccc(-c4cccnc4)n3n2)ccc1C(C)(C)C [Example 308, N-[2-tert-Butyl-5-(7-pyridin-3-yl-pyrrolo[2,1-f][1,2,4]triazin-2-ylamino)-phenyl]-acetamide] |  |  | < 100 nM | 100 to 1000 nM |
| CNS(=O)(=O)c1cccc(-c2ccc3cnc(Nc4ccc(N5CCOCC5)cc4)nn23)c1 [Example 357, N-Methyl-3-[2-(4-morpholin-4-yl-phenylamino)-pyrrolo[2,1-f][1,2,4]triazin-7-yl]-benzenesulfonamide] |  |  | < 100 nM | 100 to 1000 nM |
| CON=C1CCC(c2ccc(Nc3ncc4ccc(-c5cccc(S(=O)(=O)C(C)C)c5)n4n3)cc2)CC1 (centres unmarked) [Example 576, 4-(4-{7-[3-(Propane-2-sulfonyl)-phenyl]-pyrrolo[2,1-f][1,2,4]triazin-2-ylamino}-phenyl)-cyclohexanone O-methyl-oxime] | < 100 nM | 1000 to 10000 nM |  |  |
| COc1cc(C2CCN(C[C@@H](C)O)CC2)ccc1Nc1ncc2ccc(-c3ccccc3N(C)S(C)(=O)=O)n2n1 [Example 788, N-[2-(2-{4-[1-((R)-2-Hydroxy-propyl)-piperidin-4-yl]-2-methoxy-phenylamino}-pyrrolo[2,1-f][1,2,4]triazin-7-yl)-phenyl]-N-methyl-methanesulfonamide] | 100 to 1000 nM | < 100 nM |  |  |
| COc1ccc(Cl)cc1-c1ccc2cnc(Nc3ccc(C(C)(C)C)c(NC(C)=O)c3)nn12 [Example 306, N-{2-tert-Butyl-5-[7-(5-chloro-2-methoxy-phenyl)-pyrrolo[2,1-f][1,2,4]triazin-2-ylamino]-phenyl}-acetamide] |  |  | < 100 nM | 100 to 1000 nM |
| COc1ccccc1-c1ccc2cnc(Nc3ccc4c(c3)CCN(CC(N)=O)C4)nn12 [Example 917, 2-{6-[7-(2-Methoxy-phenyl)-pyrrolo[2,1-f][1,2,4]triazin-2-ylamino]-3,4-dihydro-1H-isoquinolin-2-yl}-acetamide] | < 100 nM | 100 to 1000 nM |  |  |
| COc1cc(N2CCC(N3CCOCC3)CC2)ccc1Nc1ncc2ccc(-c3c(OC)cccc3OC)n2n1 [Example 542, [7-(2,6-Dimethoxy-phenyl)-pyrrolo[2,1-f][1,2,4]triazin-2-yl]-[2-methoxy-4-(4-morpholin-4-yl-piperidin-1-yl)-phenyl]-amine] | 1000 to 10000 nM | 100 to 1000 nM |  |  |
| O=S(=O)(c1cccc(-c2ccc3cnc(Nc4ccc5nc(CO)[nH]c5c4)nn23)c1)N1CCCC1 [Example 1070, (6-{7-[3-(Pyrrolidine-1-sulfonyl)-phenyl]-pyrrolo[2,1-f][1,2,4]triazin-2-ylamino}-1H-benzoimidazol-2-yl)-methanol] | < 100 nM | 1000 to 10000 nM |  |  |
| COc1ccc(-c2ccc3cnc(Nc4ccc(C5CC6CCC(C5)N6C)cc4)nn23)cn1 (centres unmarked) [Example 944, [7-(6-Methoxy-pyridin-3-yl)-pyrrolo[2,1-f][1,2,4]triazin-2-yl]-[4-(8-methyl-8-aza-bicyclo[3.2.1]oct-3-yl)-phenyl]-amine] | < 100 nM | 100 to 1000 nM |  |  |

More lines, now with the values ahead:

| IC50 [1, 3] | IC50 [2, 4] | IC50 ([1]; JAK2 Kinase Inhibition) | IC50 ([2]; ALK Kinase Inhibition) | SMILES |
| --- | --- | --- | --- | --- |
| < 100 nM | 1000 to 10000 nM |  |  | CN(c1ccccc1-c1ccc2cnc(Nc3ccncc3)nn12)S(C)(=O)=O [Example 1364, N-Methyl-N-{2-[2-(pyridin-4-ylamino)-pyrrolo[2,1-f][1,2,4]triazin-7-yl]-phenyl}-methanesulfonamide] |
|  |  | 100 to 1000 nM | < 100 nM | COc1cc(N2CCC(N3CCOCC3)CC2)ccc1Nc1ncc2ccc(-c3ccccc3C(F)(F)F)n2n1 [Example 1464, [2-Methoxy-4-(4-morpholin-4-yl-piperidin-1-yl)-phenyl]-[7-(2-trifluoromethyl-phenyl)-pyrrolo[2,1-f][1,2,4]triazin-2-yl]-amine] |
|  |  | < 100 nM | 100 to 1000 nM | COc1ccc(-c2ccc3cnc(Nc4ccc(C5CNCCN5)cc4)nn23)cn1 (centres unmarked) [Example 1529, [7-(6-Methoxy-pyridin-3-yl)-pyrrolo[2,1-f][1,2,4]triazin-2-yl]-(4-piperazin-2-yl-phenyl)-amine] |
|  |  | < 100 nM | 100 to 1000 nM | NC(=O)CN1CCC(c2ccc(Nc3ncc4ccc(-c5ccccc5O)n4n3)cc2)CC1 [Example 1427, 2-(4-{4-[7-(2-Hydroxy-phenyl)-pyrrolo[2,1-f][1,2,4]triazin-2-ylamino]-phenyl}-piperidin-1-yl)-acetamide] |
|  |  | < 100 nM | < 100 nM | C[C@H](O)CN1CCN(c2cc([S@@+](C)[O-])c(Nc3ncc4ccc(-c5ccccc5N(C)S(C)(=O)=O)n4n3)cc2F)CC1 [Example 1484, (R,S)—N-[2-(2-{5-Fluoro-4-[4-((S)-2-hydroxy-propyl)-piperazin-1-yl]-2-methanesulfinyl-phenylamino}-pyrrolo[2,1-f][1,2,4]triazin-7-yl)-phenyl]-N-methyl-methanesulfonamide] |
|  |  | < 100 nM | 100 to 1000 nM | CS(=O)(=O)c1cccc(-c2ccc3cnc(Nc4ccc(C5CCN(CC(N)=O)CC5)cc4)nn23)c1 [Example 1434, 2-(4-{4-[7-(3-Methanesulfonyl-phenyl)-pyrrolo[2,1-f][1,2,4]triazin-2-ylamino]-phenyl}-piperidin-1-yl)-acetamide] |
|  |  | < 100 nM | 100 to 1000 nM | CN1CCN(c2cccc(Nc3ncc4ccc(-c5cccc6c5OC(F)(F)O6)n4n3)c2)CC1 [Example 1534, [7-(2,2-Difluoro-benzo[1,3]dioxol-4-yl)-pyrrolo[2,1-f][1,2,4]triazin-2-yl]-[3-(4-methyl-piperazin-1-yl)-phenyl]-amine] |
